Data set [1] concerns PC-12. Put plainly: Induction of neurite outgrowth in NGF-induced rat PC-12 cells assessed as increase in percentage of neurite bearing cells at 3 uM relative to control. The format is functional.
Data set [2] deals with PC-12. The data set is described as follows: Neuroprotective activity against H2O2-induced oxidative stress in rat PC-12 cells assessed as cell viability at 5 uM incubated for 24 hrs (reference value: 62.5 %). The format is functional. The conditions noted are these: read-out: Activity.
Data set [3] relates to PC-12. The data set is described as follows: Induction of neurite outgrowth in NGF-induced rat PC-12 cells. The format is functional, cell-based. The conditions noted are these: dose 1-10 µM.
In a further data set the target is Histone deacetylase 2 (Homo sapiens, UniProt Q92769). Put plainly: Inhibition of human HDAC2 using RHKKAc as substrate by fluorescence based assay.
Chain of Histone deacetylase 2 (Q92769 whole entry): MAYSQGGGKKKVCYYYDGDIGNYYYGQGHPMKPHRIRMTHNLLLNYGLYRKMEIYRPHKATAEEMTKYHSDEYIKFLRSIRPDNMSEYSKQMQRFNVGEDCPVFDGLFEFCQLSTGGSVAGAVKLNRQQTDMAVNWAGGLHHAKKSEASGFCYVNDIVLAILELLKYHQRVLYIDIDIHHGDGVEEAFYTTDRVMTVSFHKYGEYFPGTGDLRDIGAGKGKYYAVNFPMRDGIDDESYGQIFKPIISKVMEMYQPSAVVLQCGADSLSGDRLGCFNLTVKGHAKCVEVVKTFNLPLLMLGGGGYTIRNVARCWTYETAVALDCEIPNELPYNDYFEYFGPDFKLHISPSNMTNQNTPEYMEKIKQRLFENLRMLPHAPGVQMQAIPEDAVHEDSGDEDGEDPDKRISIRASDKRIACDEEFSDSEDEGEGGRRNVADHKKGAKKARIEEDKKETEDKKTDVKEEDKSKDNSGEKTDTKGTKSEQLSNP
The next data set addresses Histone deacetylase 5 (Homo sapiens, UniProt Q9UQL6). The data set is described as follows: Inhibition of human HDAC5 using Boc-Lys(trifluoroacetyl)-AMC as substrate by fluorescence based assay.
Data set [4] addresses Histone deacetylase 3/Nuclear receptor corepressor 2 (HDAC3/NCoR2) (Homo sapiens, UniProt O15379). The data set is described as follows: Inhibition of human HDAC3/NCOR2 using RHKKAc as substrate by fluorescence based assay. The data set is classed as protein-complex assay.
Data set [5] deals with PC-12. The data set is described as follows: Inhibition of HDAC6 in rat PC-12 cells assessed as increase in alpha-tubulin acetylation incubated for 24 hrs by Western blot analysis. To be noted: dose 0.1-1 µM. The format is cell-based.
For the next data set, the target named is T1, Histone deacetylase 8 (Homo sapiens, UniProt Q9BY41).
T1 sequence (Q9BY41 whole entry): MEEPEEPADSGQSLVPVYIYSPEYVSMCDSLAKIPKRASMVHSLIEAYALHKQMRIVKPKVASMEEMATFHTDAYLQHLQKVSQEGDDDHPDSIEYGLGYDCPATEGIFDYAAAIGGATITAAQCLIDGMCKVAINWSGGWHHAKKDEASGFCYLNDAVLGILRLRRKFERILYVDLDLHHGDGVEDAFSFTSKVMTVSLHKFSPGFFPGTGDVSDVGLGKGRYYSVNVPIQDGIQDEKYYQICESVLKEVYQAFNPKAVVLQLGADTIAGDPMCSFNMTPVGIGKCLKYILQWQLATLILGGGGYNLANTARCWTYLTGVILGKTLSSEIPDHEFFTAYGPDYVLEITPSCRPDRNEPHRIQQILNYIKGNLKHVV
The data set is described as follows: Inhibition of human HDAC8 using RHK(Ac)-K(Ac) as substrate by fluorescence based assay.

The target in a further data set is Histone deacetylase 1 (Homo sapiens, UniProt Q13547). The data set is described as follows: Inhibition of human HDAC1 using RHKKAc as substrate by fluorescence based assay.
Chain of Histone deacetylase 1 (Q13547 whole entry): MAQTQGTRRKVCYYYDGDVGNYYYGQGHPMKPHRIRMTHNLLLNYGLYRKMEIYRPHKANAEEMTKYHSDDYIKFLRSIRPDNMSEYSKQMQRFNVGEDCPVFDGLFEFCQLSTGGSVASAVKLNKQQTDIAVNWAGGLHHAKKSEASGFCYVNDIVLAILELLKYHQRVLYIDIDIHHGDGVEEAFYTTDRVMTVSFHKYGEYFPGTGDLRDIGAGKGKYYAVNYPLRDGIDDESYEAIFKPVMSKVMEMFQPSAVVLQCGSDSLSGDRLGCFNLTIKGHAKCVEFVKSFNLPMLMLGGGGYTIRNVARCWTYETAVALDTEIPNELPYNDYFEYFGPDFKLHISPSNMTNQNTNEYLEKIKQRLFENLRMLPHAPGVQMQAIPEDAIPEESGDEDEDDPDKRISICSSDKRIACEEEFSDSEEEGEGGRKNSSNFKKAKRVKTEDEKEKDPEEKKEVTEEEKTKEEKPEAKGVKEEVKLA
Data set [6] concerns PC-12. The data set is described as follows: Neuroprotective activity against H2O2-induced oxidative stress in rat PC-12 cells assessed as increase in cell viability at 5 uM incubated for 24 hrs. The data set is classed as functional, cell-based.
The target in data set [7] is T2, Protein deacetylase HDAC6 (Homo sapiens, UniProt Q9UBN7).
T2 sequence (Q9UBN7 whole entry): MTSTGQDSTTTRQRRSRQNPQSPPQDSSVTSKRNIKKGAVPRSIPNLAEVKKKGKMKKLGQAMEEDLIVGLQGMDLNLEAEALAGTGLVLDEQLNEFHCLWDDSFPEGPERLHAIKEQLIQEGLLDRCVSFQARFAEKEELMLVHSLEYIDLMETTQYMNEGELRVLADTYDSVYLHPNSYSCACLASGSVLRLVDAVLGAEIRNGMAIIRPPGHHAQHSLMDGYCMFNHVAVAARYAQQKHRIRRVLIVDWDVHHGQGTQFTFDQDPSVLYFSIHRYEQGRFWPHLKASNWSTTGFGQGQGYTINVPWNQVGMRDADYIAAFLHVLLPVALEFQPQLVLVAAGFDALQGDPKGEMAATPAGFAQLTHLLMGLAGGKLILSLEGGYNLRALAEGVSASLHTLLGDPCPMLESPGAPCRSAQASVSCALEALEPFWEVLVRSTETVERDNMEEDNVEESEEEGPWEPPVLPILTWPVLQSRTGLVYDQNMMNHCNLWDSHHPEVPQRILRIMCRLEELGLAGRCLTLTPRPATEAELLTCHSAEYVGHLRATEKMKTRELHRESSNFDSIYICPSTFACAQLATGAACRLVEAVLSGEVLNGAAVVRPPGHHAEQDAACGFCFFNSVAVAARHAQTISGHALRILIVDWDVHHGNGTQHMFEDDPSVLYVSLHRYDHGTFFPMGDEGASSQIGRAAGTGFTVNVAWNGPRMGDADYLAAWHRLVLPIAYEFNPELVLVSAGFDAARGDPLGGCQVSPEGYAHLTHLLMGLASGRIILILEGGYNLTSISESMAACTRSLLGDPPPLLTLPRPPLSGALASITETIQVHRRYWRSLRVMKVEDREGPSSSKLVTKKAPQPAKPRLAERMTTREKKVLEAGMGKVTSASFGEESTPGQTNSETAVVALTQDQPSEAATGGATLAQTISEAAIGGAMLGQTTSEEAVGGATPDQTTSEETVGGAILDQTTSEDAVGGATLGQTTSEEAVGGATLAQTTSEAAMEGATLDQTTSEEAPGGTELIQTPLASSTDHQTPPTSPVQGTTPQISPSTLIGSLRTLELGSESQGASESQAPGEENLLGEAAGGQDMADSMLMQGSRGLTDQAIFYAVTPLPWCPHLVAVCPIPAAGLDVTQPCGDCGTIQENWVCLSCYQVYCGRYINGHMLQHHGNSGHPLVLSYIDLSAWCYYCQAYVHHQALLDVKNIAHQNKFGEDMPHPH
The data set is described as follows: Inhibition of human HDAC6 using RHKKAc as substrate by fluorescence based assay.

The species entered for another data set is Homo sapiens. Put plainly: Selectivity index, ratio of IC50 for inhibition of human HDAC1 to IC50 for inhibition of human HDAC6.
Data set [8] in a line: Neurotoxicity in rat PC-12 cells at 1 to 10 uM. The data set is classed as toxicity, cell-based. To be noted: pc-12, 10 µM, dose 1-10 µM.

We go through twelve molecules from ChEMBL document CHEMBL5579806, “Re-exploration of tetrahydro-β-carboline scaffold: Discovery of selective histone deacetylase 6 inhibitors with neurite outgrowth-promoting and neuroprotective activities” (Bioorg Med Chem Lett, 2024).

Active and inactive are the calls of the source. No cut-off for these calls is given here.

Chain of Histone deacetylase 5 (Q9UQL6 whole entry): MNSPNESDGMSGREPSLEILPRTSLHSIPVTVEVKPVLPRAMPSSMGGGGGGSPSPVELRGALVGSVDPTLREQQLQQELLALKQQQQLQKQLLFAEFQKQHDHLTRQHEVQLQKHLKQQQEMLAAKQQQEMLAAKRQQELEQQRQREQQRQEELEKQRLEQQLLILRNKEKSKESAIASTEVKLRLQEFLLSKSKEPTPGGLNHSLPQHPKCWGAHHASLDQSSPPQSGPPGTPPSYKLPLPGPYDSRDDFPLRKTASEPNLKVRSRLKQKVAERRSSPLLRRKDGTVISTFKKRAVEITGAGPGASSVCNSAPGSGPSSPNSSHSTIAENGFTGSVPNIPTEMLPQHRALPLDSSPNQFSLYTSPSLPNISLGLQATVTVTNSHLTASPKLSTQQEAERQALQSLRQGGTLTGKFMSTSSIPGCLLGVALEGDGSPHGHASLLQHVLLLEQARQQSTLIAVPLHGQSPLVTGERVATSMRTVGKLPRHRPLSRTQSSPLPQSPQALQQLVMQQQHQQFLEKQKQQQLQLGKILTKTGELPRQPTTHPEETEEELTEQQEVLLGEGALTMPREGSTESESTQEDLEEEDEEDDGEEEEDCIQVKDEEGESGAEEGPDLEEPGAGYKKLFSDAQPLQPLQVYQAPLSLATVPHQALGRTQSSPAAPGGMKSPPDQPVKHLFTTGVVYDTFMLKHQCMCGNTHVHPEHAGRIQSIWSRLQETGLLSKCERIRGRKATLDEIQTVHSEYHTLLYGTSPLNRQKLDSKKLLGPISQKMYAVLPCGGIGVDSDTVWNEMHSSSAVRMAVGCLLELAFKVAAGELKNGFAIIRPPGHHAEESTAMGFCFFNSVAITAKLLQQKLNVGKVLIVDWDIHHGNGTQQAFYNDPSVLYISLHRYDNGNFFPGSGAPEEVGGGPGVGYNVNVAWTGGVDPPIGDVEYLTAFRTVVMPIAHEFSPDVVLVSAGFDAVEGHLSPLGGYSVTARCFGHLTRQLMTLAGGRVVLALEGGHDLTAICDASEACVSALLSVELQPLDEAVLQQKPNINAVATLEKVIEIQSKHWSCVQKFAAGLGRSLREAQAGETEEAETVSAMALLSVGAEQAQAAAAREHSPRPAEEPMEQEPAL
Chain of Histone deacetylase 3/Nuclear receptor corepressor 2 (HDAC3/NCoR2) (O15379 whole entry): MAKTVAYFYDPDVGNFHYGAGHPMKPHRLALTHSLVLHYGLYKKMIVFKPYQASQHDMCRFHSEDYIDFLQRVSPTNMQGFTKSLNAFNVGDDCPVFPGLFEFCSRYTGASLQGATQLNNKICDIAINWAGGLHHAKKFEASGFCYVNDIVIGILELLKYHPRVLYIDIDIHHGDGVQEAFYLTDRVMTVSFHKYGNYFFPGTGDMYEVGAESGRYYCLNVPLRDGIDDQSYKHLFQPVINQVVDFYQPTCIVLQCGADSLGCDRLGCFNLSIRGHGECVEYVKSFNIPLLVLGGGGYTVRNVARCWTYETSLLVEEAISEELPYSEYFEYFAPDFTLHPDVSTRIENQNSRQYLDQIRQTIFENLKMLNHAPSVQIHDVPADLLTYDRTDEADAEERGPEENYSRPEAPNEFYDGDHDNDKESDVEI
Chain of Histone deacetylase 3/Nuclear receptor corepressor 2 (HDAC3/NCoR2) (Q9Y618 whole entry, further chain): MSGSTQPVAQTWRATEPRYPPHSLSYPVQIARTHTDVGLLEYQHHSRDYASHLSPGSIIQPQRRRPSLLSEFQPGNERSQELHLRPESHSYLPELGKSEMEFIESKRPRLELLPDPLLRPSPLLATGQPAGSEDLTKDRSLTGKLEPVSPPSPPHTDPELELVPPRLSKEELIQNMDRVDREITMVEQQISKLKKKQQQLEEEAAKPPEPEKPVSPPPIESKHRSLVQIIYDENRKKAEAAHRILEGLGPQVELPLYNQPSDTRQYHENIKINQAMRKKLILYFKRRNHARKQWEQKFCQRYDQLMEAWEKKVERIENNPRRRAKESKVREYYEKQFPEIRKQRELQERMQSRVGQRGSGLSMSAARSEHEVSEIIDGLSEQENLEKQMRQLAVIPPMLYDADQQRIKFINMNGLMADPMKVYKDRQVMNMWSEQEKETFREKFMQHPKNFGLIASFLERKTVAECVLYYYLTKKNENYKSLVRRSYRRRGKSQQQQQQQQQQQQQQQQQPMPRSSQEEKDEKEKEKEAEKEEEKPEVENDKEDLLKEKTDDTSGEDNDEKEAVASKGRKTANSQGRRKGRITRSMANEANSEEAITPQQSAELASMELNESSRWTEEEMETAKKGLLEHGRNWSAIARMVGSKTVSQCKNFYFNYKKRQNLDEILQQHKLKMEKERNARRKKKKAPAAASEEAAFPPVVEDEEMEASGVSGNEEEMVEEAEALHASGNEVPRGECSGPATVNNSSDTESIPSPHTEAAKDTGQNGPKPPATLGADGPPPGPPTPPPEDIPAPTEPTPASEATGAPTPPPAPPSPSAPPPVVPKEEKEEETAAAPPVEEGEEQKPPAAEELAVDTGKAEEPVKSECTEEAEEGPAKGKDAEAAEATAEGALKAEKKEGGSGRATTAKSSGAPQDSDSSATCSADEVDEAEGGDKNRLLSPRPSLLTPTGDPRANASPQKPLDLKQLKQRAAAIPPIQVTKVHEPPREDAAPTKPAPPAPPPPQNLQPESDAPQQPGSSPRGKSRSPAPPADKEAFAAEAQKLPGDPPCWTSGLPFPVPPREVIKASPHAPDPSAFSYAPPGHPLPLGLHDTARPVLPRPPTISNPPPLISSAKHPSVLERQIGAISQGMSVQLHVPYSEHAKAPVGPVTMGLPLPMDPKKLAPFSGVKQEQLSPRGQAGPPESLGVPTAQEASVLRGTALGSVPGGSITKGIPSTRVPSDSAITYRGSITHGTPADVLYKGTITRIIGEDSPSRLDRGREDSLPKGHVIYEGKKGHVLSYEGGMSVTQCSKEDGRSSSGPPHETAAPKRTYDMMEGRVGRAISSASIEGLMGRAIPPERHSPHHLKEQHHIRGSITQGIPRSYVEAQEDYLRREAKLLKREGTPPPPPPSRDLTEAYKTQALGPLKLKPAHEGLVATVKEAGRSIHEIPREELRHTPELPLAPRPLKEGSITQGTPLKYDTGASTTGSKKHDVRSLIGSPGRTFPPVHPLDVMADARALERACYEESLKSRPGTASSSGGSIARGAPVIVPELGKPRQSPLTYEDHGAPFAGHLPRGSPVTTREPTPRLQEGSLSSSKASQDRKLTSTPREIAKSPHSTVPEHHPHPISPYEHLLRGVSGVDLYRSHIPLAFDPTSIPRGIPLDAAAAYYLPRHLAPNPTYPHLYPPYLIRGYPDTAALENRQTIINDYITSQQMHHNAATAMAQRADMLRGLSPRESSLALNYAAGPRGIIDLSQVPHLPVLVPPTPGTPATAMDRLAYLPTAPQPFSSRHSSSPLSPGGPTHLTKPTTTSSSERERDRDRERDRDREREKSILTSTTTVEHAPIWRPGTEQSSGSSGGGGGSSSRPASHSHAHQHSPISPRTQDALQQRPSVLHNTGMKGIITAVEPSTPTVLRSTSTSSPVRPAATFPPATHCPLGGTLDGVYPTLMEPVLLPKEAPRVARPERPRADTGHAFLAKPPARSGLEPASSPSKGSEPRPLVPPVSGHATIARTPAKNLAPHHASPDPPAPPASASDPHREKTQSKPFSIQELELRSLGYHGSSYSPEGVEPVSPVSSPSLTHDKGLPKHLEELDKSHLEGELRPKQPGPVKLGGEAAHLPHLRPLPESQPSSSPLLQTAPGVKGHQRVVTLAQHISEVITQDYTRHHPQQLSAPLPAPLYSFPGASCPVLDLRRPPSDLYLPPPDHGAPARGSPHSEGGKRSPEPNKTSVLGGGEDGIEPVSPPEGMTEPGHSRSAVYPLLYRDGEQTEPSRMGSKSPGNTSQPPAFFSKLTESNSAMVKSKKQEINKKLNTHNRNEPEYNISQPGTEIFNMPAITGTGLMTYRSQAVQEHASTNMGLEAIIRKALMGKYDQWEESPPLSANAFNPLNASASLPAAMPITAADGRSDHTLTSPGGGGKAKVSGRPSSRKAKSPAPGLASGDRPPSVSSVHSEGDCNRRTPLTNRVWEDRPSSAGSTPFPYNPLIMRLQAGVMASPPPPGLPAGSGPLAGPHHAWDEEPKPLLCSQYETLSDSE

As to `COc1ccc(CN2[C@H](C(=O)NCc3ccc(C(=O)NO)cc3)Cc3c([nH]c4ccccc34)[C@H]2C2CC2)cc1`, the Activity in the data set on PC-12 [1] was 23.3%; with PC-12 [3], “Dose-Dependent Effect”. Besides, the viability at 5 µM with PC-12 [2] was more than 85%.

On to `O=C(NO)c1ccc(CNC(=O)[C@@H]2Cc3c([nH]c4ccccc34)[C@@H](c3ccc(Cl)cc3)N2CC2CC2)cc1`, for which the IC50 at Histone deacetylase 2 is 1440 nM; against Histone deacetylase 5 it was more than 10000 nM; in data set [4] it was 1660 nM; on Histone deacetylase 8 it was more than 10000 nM; at Histone deacetylase 1, 1280 nM. The Activity is 47.1% in the data set on PC-12 [1] and “Dose-Dependent Effect” in the data set on PC-12 [3]. Further, the inhibition result with PC-12 [5] was “Dose-Dependent Effect”. Also, the viability at 5 µM with PC-12 [2] came to 99.6%.

In the case of `COc1ccc([C@H]2N[C@H](C(=O)NCc3ccc(C(=O)NO)cc3)Cc3c2[nH]c2ccccc32)cc1OC`, in the data set on PC-12 [1], the Activity turned out to be 23.3%. In addition, the result in the data set on PC-12 [6] was inactive. Besides, on Histone deacetylase 1, the IC50 was determined as 390 nM.

Take `COc1ccc(CN2[C@H](C)c3[nH]c4ccccc4c3C[C@H]2C(=O)NCc2ccc(C(=O)NO)cc2)cc1`: the IC50 in data set [7] is 34.2 nM; at Histone deacetylase 1, more than 10000 nM.

Consider `CN1CCc2c(c3ccccc3n2Cc2ccc(C(=O)NO)cc2)C1` [TUBASTATIN A], for which the Activity in the data set with PC-12 [1] is 26.7%. Also, the viability at 5 µM in the data set with PC-12 [2] amounted to 77.6%.

For `O=C(NO)c1ccc(CNC(=O)[C@@H]2Cc3c([nH]c4ccccc34)[C@@H](c3ccccc3)N2)cc1`, the Activity with PC-12 [1] is 23.3%. In addition, the figures for the IC50 (in data set [7]; at Histone deacetylase 1) were 5.3 nM and 742 nM, respectively. In the data set on PC-12 [6], the result was inactive. For the same molecule, the Ratio IC50 in the data set filed under Homo sapiens amounted to 140.

As for `O=C(NO)c1ccc(CNC(=O)[C@@H]2Cc3c([nH]c4ccccc34)[C@@H](C3CC3)N2Cc2ccc(Cl)cc2)cc1`, the Activity is 23.3% in the data set on PC-12 [1] and “Dose-Dependent Effect” in the data set with PC-12 [3]. Also, the viability at 5 µM in the data set on PC-12 [2] was 92.5%. In addition, the IC50 in data set [7] came out at 11.2 nM; against Histone deacetylase 1, 1740 nM. For the same molecule, the Ratio IC50 in the data set listed under Homo sapiens came out at 155.

In the case of `O=C(NO)c1ccc(CNC(=O)[C@@H]2Cc3c([nH]c4ccccc34)[C@@H](c3ccc4c(c3)OCO4)N2)cc1`, the Activity is 46.4% in the data set on PC-12 [1] and “Toxic” in [8]. Besides, the IC50 amounted to 2 nM in data set [7] and 216 nM at Histone deacetylase 1. Moreover, in the data set with PC-12 [6], the outcome was inactive. Besides, the Ratio IC50 in the data set filed under Homo sapiens is 108.

Regarding `O=C(NO)c1ccc(CNC(=O)[C@@H]2Cc3c([nH]c4ccccc34)[C@@H](c3ccc(Cl)cc3)N2)cc1`, the Activity in the data set with PC-12 [1] came out at 23.3%. Moreover, the IC50 is 5.61 nM in data set [7] and 770 nM on Histone deacetylase 1. Further, the result with PC-12 [6] was inactive. Also, in the data set filed under Homo sapiens, the Ratio IC50 was 137.

Take `O=C(NO)c1ccc(CNC(=O)[C@@H]2Cc3c([nH]c4ccccc34)[C@@H](C3CC3)N2)cc1`: in the data set on PC-12 [1], the Activity came to 23.3%. Moreover, the IC50 in data set [7] turned out to be 3.25 nM; against Histone deacetylase 1, 118 nM. Moreover, the result with PC-12 [6] was inactive. In the data set listed under Homo sapiens, the Ratio IC50 was found to be 36.

For `O=C(NO)c1ccc(CNC(=O)[C@@H]2Cc3c([nH]c4ccccc34)[C@@H](C3CC3)N2Cc2ccccc2)cc1`, the Activity in the data set with PC-12 [1] is 23.3%; with PC-12 [3], “Dose-Dependent Effect”. Moreover, the viability at 5 µM with PC-12 [2] was more than 85%. Further, the figures for the IC50 (in data set [7]; at Histone deacetylase 1) were 12.7 nM and 1700 nM, respectively. In the data set listed under Homo sapiens, the Ratio IC50 was 134.

With `O=C(NO)c1ccc(CNC(=O)[C@@H]2Cc3c([nH]c4ccccc34)[C@@H](C3CCCC3)N2)cc1`, the Activity with PC-12 [1] is 23.3%. In addition, the IC50 in [7] came to 4.54 nM; on Histone deacetylase 1, 204 nM. In the data set with PC-12 [6], the outcome was inactive. The Ratio IC50 in the data set listed under Homo sapiens was found to be 45.
